Data as given in publication PMC6750108, “Crystal Structure of 4-Hydroxyphenylpyruvate Dioxygenase in Complex with Substrate Reveals a New Starting Point for Herbicide Discovery” (Research, 2019).

Experiments:
human HPPD = molecular target: T1, human HPPD (Homo sapiens, UniProt P32754); assay: inhibition kinetics (supplement Method S2); format: biochemical
T1 construct: gene HPD

AtHPPD = molecular target: T2, AtHPPD (Arabidopsis thaliana, UniProt P93836); assay: HGD-coupled assay at […] nm, progress curves; format: biochemical
T2 construct: gene HPD; full-length, N-terminal His tag (pET15b), E. coli BL21 (DE3); Ni-NTA, ion exchange, size exclusion; homodimers in crystal
T2 sequence (P93836 1-445): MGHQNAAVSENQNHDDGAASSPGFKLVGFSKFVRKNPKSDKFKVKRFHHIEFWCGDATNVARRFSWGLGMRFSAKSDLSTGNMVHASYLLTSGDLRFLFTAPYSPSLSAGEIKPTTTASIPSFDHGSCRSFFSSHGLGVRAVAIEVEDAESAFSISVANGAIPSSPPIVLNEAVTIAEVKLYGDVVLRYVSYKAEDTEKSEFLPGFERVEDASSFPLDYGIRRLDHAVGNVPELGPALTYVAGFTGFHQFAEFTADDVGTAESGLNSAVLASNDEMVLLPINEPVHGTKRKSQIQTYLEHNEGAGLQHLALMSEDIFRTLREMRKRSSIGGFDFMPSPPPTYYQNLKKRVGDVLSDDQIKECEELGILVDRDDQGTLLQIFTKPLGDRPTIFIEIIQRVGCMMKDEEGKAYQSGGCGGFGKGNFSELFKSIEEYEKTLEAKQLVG

T1 sequence (P32754 2-393): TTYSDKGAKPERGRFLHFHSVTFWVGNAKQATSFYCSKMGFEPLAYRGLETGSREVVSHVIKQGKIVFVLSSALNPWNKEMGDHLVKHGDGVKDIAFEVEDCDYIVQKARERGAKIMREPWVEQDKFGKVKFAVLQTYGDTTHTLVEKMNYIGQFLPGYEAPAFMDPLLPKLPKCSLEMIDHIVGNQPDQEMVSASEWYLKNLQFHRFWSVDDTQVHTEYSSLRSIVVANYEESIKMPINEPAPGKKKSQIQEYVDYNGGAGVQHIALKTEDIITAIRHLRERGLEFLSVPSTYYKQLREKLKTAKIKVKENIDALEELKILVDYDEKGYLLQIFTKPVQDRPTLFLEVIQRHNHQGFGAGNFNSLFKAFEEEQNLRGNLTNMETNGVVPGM

## Cc1cccc(C)c1-n1c(=O)c2cc(C(=O)C3C(=O)CCCC3=O)ccc2n(C)c1=O [Y13161]
Human HPPD
  Ki: 179 ± 7.7 nM
AtHPPD
  Ki: 24.2 ± 1.01 nM
